Assay results taken from PMC12273560, “A versatile fluorescence polarization-based deubiquitination assay using an isopeptide bond substrate mimetic (IsoMim)” (The Journal of Biological Chemistry, 2025).

Assays:
UCHL3 = biological target: T1, UCHL3 (Homo sapiens, UniProt P15374); experiment: fluorescence polarization deubiquitination assay (IsoMim); format: biochemical
T1 construct: expressed in E. coli BL21(DE3)-RIL, nickel column purification
T1 sequence (P15374 1-230): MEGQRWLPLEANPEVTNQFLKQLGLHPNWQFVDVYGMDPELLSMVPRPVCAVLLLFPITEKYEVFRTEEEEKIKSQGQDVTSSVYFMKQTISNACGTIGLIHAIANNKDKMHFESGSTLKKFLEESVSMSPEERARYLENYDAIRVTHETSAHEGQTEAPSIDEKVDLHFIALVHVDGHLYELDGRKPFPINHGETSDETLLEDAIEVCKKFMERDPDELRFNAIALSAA

USP2 = biological target: T2, USP2 (Homo sapiens, UniProt O75604); experiment: as above; format: biochemical
T2 construct: expressed in E. coli BL21(DE3)-RIL, nickel column purification
T2 sequence (O75604 250-605): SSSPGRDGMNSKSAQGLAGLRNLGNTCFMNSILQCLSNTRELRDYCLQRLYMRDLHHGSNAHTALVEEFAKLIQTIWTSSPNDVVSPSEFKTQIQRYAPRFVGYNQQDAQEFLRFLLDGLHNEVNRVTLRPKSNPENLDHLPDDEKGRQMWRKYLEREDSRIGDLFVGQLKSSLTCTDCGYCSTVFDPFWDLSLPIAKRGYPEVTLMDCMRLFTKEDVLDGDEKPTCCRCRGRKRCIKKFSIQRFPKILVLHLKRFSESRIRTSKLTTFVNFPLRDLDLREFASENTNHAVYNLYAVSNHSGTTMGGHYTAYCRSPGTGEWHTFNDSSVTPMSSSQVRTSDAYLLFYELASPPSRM

N#CSc1cc(SC#N)c(N)nc1N [PR-619]
IC50 (UCHL3): 4.68 µM
IC50 (USP2): 1070 nM
